In ChEMBL document CHEMBL1201862, “PubChem BioAssay data set” (2004):
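Each compound was tested at five concentrations against cells in 96-well plates for 48 hours. Abbreviation: GI50, concentration required for 50% inhibition of growth.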 Calls of active or inactive are those of the source. No stated cut-off is given here; in the data, active = GI50 up to about 1.1 µM and inactive = higher.

Columns and labels:
Experiment in all cases: growth of human tumour cells (NCI), 48 h
[1] = test system: DLD-1
[2] = test system: M19-MEL
[3] = test system: RXF 631
[4] = test system: KM-20L2
[5] = test system: LXFL 529
[6] = test system: DMS-114
[7] = test system: DMS-273
[8] = test system: HOP-18
[9] = test system: XF498

Row | Structure (SMILES) | GI50 [1] | GI50 [2] | GI50 [3] | GI50 [4] | GI50 [5] | GI50 [6] | GI50 [7] | GI50 [8] | GI50 [9]
1 | Cc1cccc2c1c1ccc3c(c1n2C)C(=O)C=CC3=O | 2.28 µM (inactive) | 5.33 µM (inactive) | 6.79 µM (inactive) | 16.2 µM (inactive) | 2.01 µM (inactive) | 6.35 µM (inactive) | 3.11 µM (inactive) | 10 µM (inactive) | 
2 | Cc1ccc(N2C(=O)/C(=C3\Sc4c(nc(C)n(C)c4=O)N3c3ccccc3)SC2=S)cc1 |  | > 100 µM (inactive) |  | > 100 µM (inactive) | 68.7 µM (inactive) | 35.6 µM (inactive) | 25.2 µM (inactive) |  | > 100 µM (inactive)
3 | COC(=O)C(=O)C(CC(=O)Nc1cc(Cl)ccc1Cl)C(=O)OC (stereo not given) |  |  |  | > 100 µM (inactive) | > 100 µM (inactive) | > 100 µM (inactive) | > 100 µM (inactive) | > 100 µM (inactive) | 
4 | COc1ccc(Cn2c(C)nc3c2C(=O)c2ccccc2C3=O)cc1 | 4.67 µM (inactive) | 7.91 µM (inactive) |  | 11.6 µM (inactive) | 4.31 µM (inactive) |  | 3.32 µM (inactive) |  | 11.7 µM (inactive)
5 | COC(=O)C1=C(c2cc(OC)c(OC)c(OC)c2)OC(c2cc(OC)c(OC)c(OC)c2)C1 (stereo not given) | 21.9 µM (inactive) | 26.7 µM (inactive) |  | 22.5 µM (inactive) | 22.4 µM (inactive) | 30.7 µM (inactive) | 22.5 µM (inactive) | 19.5 µM (inactive) | 24.4 µM (inactive)
6 | COc1ccc(C2=C(Cl)c3cc(OC)c(OC)cc3C2)cc1OC | > 100 µM (inactive) | > 100 µM (inactive) |  | > 100 µM (inactive) | > 100 µM (inactive) | > 100 µM (inactive) | > 100 µM (inactive) | > 100 µM (inactive) | > 100 µM (inactive)
7 | CC(=O)CC(=O)Nc1ccc(OS(N)(=O)=O)cc1 | > 100 µM (inactive) | > 100 µM (inactive) | > 100 µM (inactive) | > 100 µM (inactive) | > 100 µM (inactive) | > 100 µM (inactive) | > 100 µM (inactive) | > 100 µM (inactive) | > 100 µM (inactive)
8 | COc1c(CC=C(C)C)c(O)c(C(CC(C)C)c2c(O)c(CC=C(C)C)c(O)c(C(C)=O)c2O)c(O)c1C(C)=O (stereo not given) | 0.38 µM (active) | 1.43 µM (inactive) | 0.425 µM (active) |  |  | 0.19 µM (active) | 0.333 µM (active) | 0.551 µM (active) | 0.596 µM (active)
9 | COc1ccc2c(c1)[n+]([O-])c(C(=O)CC(=O)C(=O)Nc1cccc(C)c1C)c(C)[n+]2[O-] | > 100 µM (inactive) | > 100 µM (inactive) | > 100 µM (inactive) | > 100 µM (inactive) | > 100 µM (inactive) | > 100 µM (inactive) |  | > 100 µM (inactive) | > 100 µM (inactive)
10 | CC(=O)OCc1c2ccccc2c(C)c2c1cc(F)c1ccccc12 | 14.8 µM (inactive) |  | 25.8 µM (inactive) | 28.8 µM (inactive) | 29.6 µM (inactive) | 31.5 µM (inactive) | 10.4 µM (inactive) | 24.6 µM (inactive) | 16.6 µM (inactive)
11 | CC(=O)N1CCN(c2ccc(OCC3COC(Cn4ccnc4)(c4ccc(Cl)cc4Cl)O3)cc2)CC1 (stereo not given) [KETOCONAZOLE] | 33 µM (inactive) | 21.4 µM (inactive) |  | 32.7 µM (inactive) | 26.4 µM (inactive) | 16 µM (inactive) | 20.5 µM (inactive) | > 100 µM (inactive) | 
12 | O=C1OC(Cc2ccccc2)(N2CCCC2=O)C1c1ccccc1 (stereo not given) | 55.3 µM (inactive) | > 100 µM (inactive) |  | > 100 µM (inactive) | 78.3 µM (inactive) | 23.7 µM (inactive) |  |  | 20.3 µM (inactive)
13 | CC1(C)C=C(N2CCN(C3=CC(C)(C)NC(C)(C)C3)CC2)CC(C)(C)N1 | > 100 µM (inactive) | > 100 µM (inactive) |  | > 100 µM (inactive) | > 100 µM (inactive) | > 100 µM (inactive) | > 100 µM (inactive) | > 100 µM (inactive) | > 100 µM (inactive)
14 | CC(=S)NNC(=O)c1ccncc1 | > 100 µM (inactive) | > 100 µM (inactive) |  | > 100 µM (inactive) | > 100 µM (inactive) |  | > 100 µM (inactive) | > 100 µM (inactive) | > 100 µM (inactive)
15 | C[C@]12CC[C@H](O)CC1=CC[C@@H]1C2CC[C@]2(C)C(=O)NC(=O)CC12 (stereo not given in full) | 44.6 µM (inactive) | > 100 µM (inactive) | 76.7 µM (inactive) | > 100 µM (inactive) | 74.3 µM (inactive) | > 100 µM (inactive) | 56.9 µM (inactive) | > 100 µM (inactive) | > 100 µM (inactive)
16 | CCOC(=O)/C(=C\c1ccc(OCc2ccccc2)c(OC)c1)C(=O)c1ccccc1 |  | 22.1 µM (inactive) |  | 19.5 µM (inactive) |  | 19.7 µM (inactive) |  |  | 18.1 µM (inactive)
17 | Cc1ccc(S(=O)OC23CC4CC(CC(C4)C2)C3)cc1 (stereo not given) | > 100 µM (inactive) | > 100 µM (inactive) | 72.8 µM (inactive) | > 100 µM (inactive) | > 100 µM (inactive) | 78.5 µM (inactive) | > 100 µM (inactive) | > 100 µM (inactive) | > 100 µM (inactive)
18 | CC(CC[C@@H](C)C1CCC2[C@@H]3CC(O)C4CC(O)[C@@H](O)C[C@]4(C)C3CC[C@@]21C)C(C)(C)C (stereo not given in full) | > 100 µM (inactive) | > 100 µM (inactive) |  | > 100 µM (inactive) | > 100 µM (inactive) | > 100 µM (inactive) | > 100 µM (inactive) | > 100 µM (inactive) | > 100 µM (inactive)
19 | [O-][Cl+3]([O-])([O-])O.c1ccc(/N=c2\nc(N3CCOCC3)ss2)cc1 | 14.6 µM (inactive) | 18 µM (inactive) | 17.4 µM (inactive) | 16.5 µM (inactive) | 12.2 µM (inactive) | 14.6 µM (inactive) | 17.4 µM (inactive) | > 100 µM (inactive) | 17.9 µM (inactive)
20 | Cc1ccc(/C=N\NC2c3cc(Cl)ccc3Nc3nc(O)nc(C)c32)cc1 (stereo not given) | > 100 µM (inactive) | > 100 µM (inactive) |  | > 100 µM (inactive) | > 100 µM (inactive) | > 100 µM (inactive) | 91.4 µM (inactive) |  | > 100 µM (inactive)
21 | CC1COC(C)(C)P(=O)(c2ccccc2)C1 (stereo not given) | > 100 µM (inactive) | > 100 µM (inactive) |  | > 100 µM (inactive) | > 100 µM (inactive) | > 100 µM (inactive) | > 100 µM (inactive) | > 100 µM (inactive) | > 100 µM (inactive)
22 | COc1cc(/C=C2\[C@@H]3NC(Cc4c(OC)c(C)c(OC)c(OC)c43)C(=O)N2Cc2ccccc2)c(OC)c(C)c1OC | 45.4 µM (inactive) | 28.5 µM (inactive) | 53.7 µM (inactive) | 37.8 µM (inactive) | 37.5 µM (inactive) | 29.8 µM (inactive) | 27.9 µM (inactive) | 43.8 µM (inactive) | 
23 | C=C(c1ccccc1)[C@@]1(O)CCCC[C@H]1NC(c1ccccc1)c1ccccc1 | 14.6 µM (inactive) | 15 µM (inactive) |  | 13.8 µM (inactive) | 11.1 µM (inactive) | 9.64 µM (inactive) | 13.1 µM (inactive) | 19.9 µM (inactive) | 
